Results: patent US20070220627A1, “Methods and Compositions for the Selection of a Transgenic Plant” (PIONEER HI-BRED INTERNATIONAL, INC., priority 2006, published 2007)

System: Non-transgenic maize seed from inbred N46
Assay: Priming matrix additives: Dormex + DMSO
Assay type: in vivo
Details: 1% DMSO without Dormex, 3 hours, 95 seed
Method: Non-transgenic maize seed from inbred N46 were primed with 0, 5, 10, 15, or 30% Dormex® solutions with and without 1% DMSO. For each treatment, 96 seeds were soaked in 50 ml of Dormexe solution in a petri dish for 3 hours at room temperature. After priming the seeds were transferred into pollination bags, and dried overnight in front of a fan. Dried primed seed were then planted into flats to germinate.

C[S+](C)[O-] [DMSO]
Germination %: 93% | Seedlings: 88
